Earlier results as cited in PMC9411704, “Assessment of the Carcinogenic Potential of Pretomanid in Transgenic Tg.rasH2 Mice” (International Journal of Toxicology, 2022).

Parameters: method as in PMID 32130813
Details: 200 mg/day, clinical study NCT02333799; cited from earlier work

O=[N+]([O-])c1cn2c(n1)OC[C@@H](OCc1ccc(OC(F)(F)F)cc1)C2 [Pretomanid, (6S)-2-nitro-6-{[4-(trifluoromethoxy)benzyl]oxy}-6,7-dihydro-5H-imidazo[2,1-b][1,3]oxazine]
Human AUC0-24: 50900 ng·h/mL
